How the values were obtained:
[1] = Description: The composition is prepared by the combination of selenium disulfide (SeS2) in combination with Petrolatum base (and in the absence of surface acting agents). Compositions comprising various concentrations of selenium disulfide are prepared, such as 0.1 wt. %, 0.5 wt. %, 1 wt. %, 1.5 wt. %, 2 wt. %, and 2.5 wt. %.
Various compositions prepared as described above are administered to the eye or eyelid (e.g., margin thereof) of albino rabbits. Various compositions are administered to distinct cohorts using various treatment protocols, such as based on frequency of administration (e.g., once daily, twice daily, every other day, and once weekly) and volume of administration (e.g., <25 μL, […] per administration). Compositions lacking selenium disulfide are administered to a separate cohort to establish a control.
Albino rabbits are evaluated, and an accurate volume of the composition is ejected from a device (e.g., micropipette) and is delivered to the lower eyelid of the rabbits. In one example, the volume is ˜25 μL (equivalent to 20 mg in weight). The rabbits are examined daily.
2.5% SeS2 at a dosing volume of 25 μL is administered to the animals.
Therefore, a reduced dose of 5 μL (equivalent to 4 mg) is placed on the lid of the rabbits.

[2] = rabbit, in vivo; cited from earlier work
[3] = system: Demodex folliculorum mites; test: In vitro assessment of anti-demodectic properties: viability of Demodex mites on epilated eyelashes; conditions: SeS2 4%
[4] = in vivo; cited from earlier work
[5] = rabbit, in vivo
Excerpt: On a subsequent study to Example 6, concentrations ranging from 0.5 wt. % to 2.5 wt. % were used on New-Zealand rabbits, once daily to twice weekly for 28 days.

Remark: listed apart in the source
[6] = cited from earlier work
[7] = 25 μL (20 mg) of 2.5% SeS2 with petrolatum, lower eyelid of right eye

SMILES: S=[Se]=S [SeS2, selenium disulfide]
- clinical or microscopic findings ([1]; 0.5%, 1.0% or 2.5%, twice weekly or once daily, dose volume 5 μL, summary, species not stated): no clinical or microscopic findings
- keratitis, including red and swollen eyelids, animals affected ([1]; rabbit, in vivo): all animals
- ocular effects at reduced dose ([1]; rabbit, in vivo): no evidence for any of the effects
- time to onset of ocular effects after application [2]: ≤ 2 h
- death of the mites [3]: caused death of the mites
- irritancy to rabbit dermis [4]: did not appear to be irritant
- ophthalmic observations versus previous study [5]: safer
- finding on clinical examination [7]: keratitis is observed with multiple punctate over the center exposed part of the cornea
- time to reported pain [7]: About 4 hours
- time to resolution of keratitis (treated with lubricants and local NSAID): ≤ 48 h
- tolerability of ointment on the lids ([6]; 0.5 percent ointment, all patients complained of burning of the conjunctiva (Rychener)): too strong
- epithelial keratitis ([6]; human, in vivo): 6 cases
- keratitis, conjunctivitis with erythematous and swollen lids ([6]; human, in vivo): Two
